Measurements published in patent US7037656B2, “Methods and compositions for identifying ligands for nuclear receptors” (priority 2000, dated 2006).

Tests used:
[1] = target: T1, Aa AB EcR/Aa USPa and SMRT (Aedes aegypti, UniProt P49880); assay: Yeast 6x EcRE-lacZ reporter assay with SMRT (ligand-dependent down regulation); format: cell-based; conditions: 10 μM; Aa AB EcR/Aa USPa co-expressed with SMRT, constitutive reporter expression without ligand (FIG. 10A)
T1 construct: human ubiquitin (76 aa) (N, cleaved yes); expressed in transfected cells; host or cells: yeast (Saccharomyces cerevisiae)
Excerpt: FIGS. 10A and 10B are graphs showing the roles of the coactivators and co-repressors in transactivation of AaΔEcR. Interaction of different transcriptional factors in combination with the heterodimers AaΔEcR/USPa or AaΔEcR/USPb (FIG. 10A). […] The yeast strains carrying the reporter plasmid which contains 6 EcRE response elements coupled with E. coli β gal gene in combination with the presence of different plasmids for expression of different USPs, AaΔEcR and coactivators/repressors. The final concentration of all ecdysteroid analogues was 10 μM. The data are presented as a median set of at least 8 independent experiments plus SD.
(§1) Briefly, yeast cells are cultured in 5 mL of YPD liquid medium overnight at 30° C. The cell culture was diluted 1:20 in YPD media and further grown until cell density reached an O.D of 0.6. at OD600. The cells were pelleted by centrifugation and washed with 10 mL of TE+0.1M lithium acetate. Cells are then resuspended in 10 mL TE+0.1M lithium acetate and incubated at 30° C. for 1 hour. Cells are collected and resuspended in 0.5 mL of TE+ 0.1M lithium acetate. Aliquots of cells (50 μL), were incubated for 15 minutes at 30° C. with 1–2 μg plasmid DNA in the presence of 5 μg of denatured salmon sperm DNA as DNA carrier. In the case of co-transformation, the indicated plasmids were added simultaneously. […]

[2] = test system: Cf ΔA/B EcR + RXR β + GRIP1; assay: Yeast 6x EcRE-lacZ β-galactosidase transactivation assay; format: cell-based, Choristoneura fumiferana; mouse; conditions: RH 5992 10 μM, 4 hours, DMSO control 0.205
Procedure: (§2) The human RXR α (Genbank accession number X52773), mouse RXR β (Genbank accession number X66224) or mouse RXR γ (Genebank accession number X66225) subtypes were expressed in yeast-E. coli multicopy 2μ expression plasmids under regulation of CUP1 promoter with the LEU2 selective marker (1).
as §1, with “simultaneously. 50% polyethyleneglycol of molecular weight 4000, diluted in TE, was added to a final concentration of 35%. DMSO was added to the transformation solution simultaneously to a final concentration 3%. The samples were mixed well by vortexing and incubated for an additional 30 minutes at 30° C. The cell mixture is then heated for 15 minutes at 42° C.” for “simultaneously.”

[3] = target: T2, Cf ΔA/B EcR + RXR γ + GRIP1 (Choristoneura fumiferana, UniProt O77240); assay: as above; format: cell-based, Choristoneura fumiferana; mouse; conditions: RH 5992 10 μM, 4 hours, DMSO control 0.200
T2 construct: human ubiquitin (76 aa) (N, cleaved yes); expressed in transfected cells; host or cells: yeast (Saccharomyces cerevisiae)
Procedure: as §2
as §1, with “simultaneously. 50% polyethyleneglycol of molecular weight 4000, diluted in TE, was added to a final concentration of 35%. DMSO was added to the transformation solution simultaneously to a final concentration 3%. The samples were mixed well by vortexing and incubated for an additional 30 minutes at 30° C. The cell mixture is then heated for 15 minutes at 42° C.” for “simultaneously.”

T2 sequence (O77240 entry or part of it, stated change not applied): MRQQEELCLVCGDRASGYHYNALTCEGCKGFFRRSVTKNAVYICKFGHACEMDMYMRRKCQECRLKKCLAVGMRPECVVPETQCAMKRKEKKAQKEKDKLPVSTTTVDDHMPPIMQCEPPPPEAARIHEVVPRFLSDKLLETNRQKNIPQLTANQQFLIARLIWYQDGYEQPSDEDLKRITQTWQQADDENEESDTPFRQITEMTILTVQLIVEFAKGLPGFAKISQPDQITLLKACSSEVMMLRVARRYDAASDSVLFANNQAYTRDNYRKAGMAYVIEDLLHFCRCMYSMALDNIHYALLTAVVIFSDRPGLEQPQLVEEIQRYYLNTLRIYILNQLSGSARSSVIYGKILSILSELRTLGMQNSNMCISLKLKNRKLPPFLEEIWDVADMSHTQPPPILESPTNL
T2 sequence (P28705 whole entry partner): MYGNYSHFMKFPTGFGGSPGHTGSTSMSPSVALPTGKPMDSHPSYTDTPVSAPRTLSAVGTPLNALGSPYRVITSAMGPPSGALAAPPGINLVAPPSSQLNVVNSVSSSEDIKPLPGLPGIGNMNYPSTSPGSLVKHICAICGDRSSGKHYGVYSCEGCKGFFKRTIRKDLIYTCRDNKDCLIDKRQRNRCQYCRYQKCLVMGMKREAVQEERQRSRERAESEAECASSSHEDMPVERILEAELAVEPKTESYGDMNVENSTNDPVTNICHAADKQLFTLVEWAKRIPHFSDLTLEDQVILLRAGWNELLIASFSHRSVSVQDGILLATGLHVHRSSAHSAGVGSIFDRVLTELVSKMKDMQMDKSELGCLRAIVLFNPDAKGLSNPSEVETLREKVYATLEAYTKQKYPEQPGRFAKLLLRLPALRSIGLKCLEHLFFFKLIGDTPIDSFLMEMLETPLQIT
T1 sequence (P49880 with tags, fused parts or gaps): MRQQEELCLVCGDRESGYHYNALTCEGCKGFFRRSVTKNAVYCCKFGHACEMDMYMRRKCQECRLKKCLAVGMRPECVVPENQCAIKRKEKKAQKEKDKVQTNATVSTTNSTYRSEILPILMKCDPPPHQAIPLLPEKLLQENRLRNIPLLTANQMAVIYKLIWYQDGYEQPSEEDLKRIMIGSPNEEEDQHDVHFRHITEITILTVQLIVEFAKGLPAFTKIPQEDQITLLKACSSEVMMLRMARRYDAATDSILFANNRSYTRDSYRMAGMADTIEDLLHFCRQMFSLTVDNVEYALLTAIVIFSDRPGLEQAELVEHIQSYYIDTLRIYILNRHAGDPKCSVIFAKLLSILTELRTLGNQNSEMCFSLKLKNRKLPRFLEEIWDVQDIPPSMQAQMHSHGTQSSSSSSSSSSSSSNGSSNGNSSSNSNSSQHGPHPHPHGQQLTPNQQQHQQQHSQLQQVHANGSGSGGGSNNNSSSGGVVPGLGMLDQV

In the case of `CCc1ccc(C(=O)NN(C(=O)c2cc(C)cc(C)c2)C(C)(C)C)cc1` [RH 5992, tebufenozide], the “effect on reporter gene expression (in words)” value [1] is reported as “suppression of the levels of reporter gene expression”, the β-galactosidase activity [2] is reported as 0.456 and the β-galactosidase activity [3] is reported as 1.030.
